Test results as given in patent US9387221B2, “SDF-1 binding nucleic acids and the use thereof in cancer treatment” (NOXXON Pharma AG, priority 2010, dated 2016).
{PEG40k} = 40 kDa polyethylene glycol

Experiments:
[1] = test system: SDF-1 dose-dependent adhesion of Jurkat cells to fibronectin; test: Adhesion of Jurkat cells to fibronectin; type: cell-based, human; conditions: SDF-1 plus increasing concentrations of Spiegelmer
Description: The T cell leukemia Jurkat (ACC 282) were purchased from the DSMZ were maintained in RPMI medium 1640 GlutaMAX (Invitrogen) supplemented with 10% FBS (Biochrom) and penicillin-streptomycin. For the adhesion experiments 96-well culture plates were incubated with 10 μg/mL human fibronectin (R&D systems) in PBS for 2 hours at 37° C. […] The wells were then washed with RPMI medium. Jurkat cells from logarithmic growth phase were washed with RPMI medium (+0.1% BSA) and incubated with various concentrations of human SDF-1 (R&D systems) and NOX-A12 for 15 minutes at 37° C. NOX-A12 and SDF-1 were preincubated for 30 minutes. lx 105 stimulated Jurkat cells were seeded to the Fibronectin-coated 96-well plates and incubated for 30 minutes. The plates were then washed five times with RPMI medium. Attached cells were quantified by using Cell Titer Glo Reagent (Promega). Therefor, 50 μL RPMI medium was added to each well, followed by 50 μL of Cell Titer Glo Reagent. The plates were mixed for two minutes, followed by incubation at room temperature for 10 minutes. Cell number was quantified by relative luminescence signal.

[2] = test system: RPMI-8226 MM cells; test: Chemosensitization coculture of RPMI-8226 MM cells with stromal MS-5 cells; type: cell-based; conditions: 100 nM NOX-A12, 1 μM F-ara-A, 40 hours
Description: In order to mimic the in vivo interaction of the BM microenvironment with leukemia cells, an in vitro coculture system with murine BM stromal MS-5 cells and the multiple myeloma (abbr. MM) cell line RPMI 8226 was established. Aim of the experiment was to show whether SDF-1 binding […] NOX-A12 sensitizes MM cells in coculture with stromal cells to effects of chemotherapeutic agents. Stromal MS-5 cells secreting SDF 1 were incubated with SDF-1 binding […] NOX-A12 or the non-functional revNOX-A12. The MM cell line RPMI-8226 was added to the confluent stromal cell layer. The cells were then incubated with the chemotherapeutic agent F ara A (Fludarabine) for 40 hours. Cell Viability viability was measured. The murine stromal cell line MS-5 (ACC 441) was purchased from the DSMZ, the Multiple Myeloma cell line RPMI8226 (CCL-155) was purchased from the ATCC. The Multiple Myeloma cell line RPMI8226 was maintained in RPMI medium 1640 GlutaMAX (Invitrogen) supplemented with 10% FBS (Biochrom) and penicillin-streptomycin, the MS-5 cells were cultured in MEM alpha GlutaMAX (Invitrogen) with 10% FBS and penicillin-streptomycin. […] Cell viability and cell number were determined by Flow Cytometry using the Guava EasyCyte 6HT/2L (Millipore).

[3] = molecular target: SDF-1 (Homo sapiens, UniProt P48061); test: Inhibition of SDF-1-induced chemotaxis, Nalm-6 cells; type: cell-based; conditions: 0.3 nM human SDF-1
SDF-1, sequence (P48061 22-89): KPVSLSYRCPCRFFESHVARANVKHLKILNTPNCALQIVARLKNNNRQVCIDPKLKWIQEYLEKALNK
Description: The human T cell leukemia cell line Jurkat, the human leukemic monocyte lymphoma cell line U937, the human pre-B cell leukemia cell line BV-173 and human pre-B ALL cell line Nalm-6 express CXCR4. […] All cells used were obtained from the DSMZ (Braunschweig). All cell lines were cultivated at 37° C. and 5% CO2 in RPMI 1640 medium with Glutamax (Invitrogen, Karlsruhe, Germany) which contains 10% fetal bovine serum, 100 units/ml penicillin and 100 μg/ml streptomycin (Invitrogen, Karlsruhe, Germany). One day before the experiment, cells were seeded in a new T175 flask with a density of 0.3×10^6/ml (Jurkat, U937, BV-173) or 0.75×10^6/ml (Nalm-6), respectively.
For the experiment, cells were centrifuged (5 min at 300 g), resuspended, counted and washed once with 15 ml HBH (Hanks balanced salt solution containing 1 mg/ml bovine serum albumin and 20 mM HEPES; Invitrogen, Karlsruhe, Germany). Then the cells were resuspended at 1.33×10^6/ml (Jurkat, U937, BV-173) or 2.67×10^6/ml (Nalm-6), respectively. […]
For evaluation, fluorescence values were corrected for background fluorescence (no cells in well). Then the difference between experimental conditions with and without SDF-1 was calculated. The value for the sample without Spiegelmer (SDF-1 only) was set 100% and the values for the samples with Spiegelmer were calculated as percent of this. […]

Substance: 5′-40 kDa-PEG-GCGUGGUGUGAUCUAGAUGUAUUGGCUGAUCCUAGUCAGGUACGC (5' {PEG40k}, sugars by position and backbone not given here) [NOX-A12]
- reversal of SDF-1 effect on adhesion of Jurkat cells to fibronectin [1]: reverse this effect
- cell viability of RPMI-8226 cells cocultured with stromal MS-5 cells [2]: only slightly affected
- inhibition of SDF-1 induced chemotaxis [3]: Inhibition
